Reference: ChEMBL document CHEMBL2029274, “Structure and property based design, synthesis and biological evaluation of γ-lactam based HDAC inhibitors: part II” (Bioorg Med Chem Lett, 2012)

Columns and labels:
[1] = Inhibition of HDAC by fluorescence assay
[2] = system: PC-3; assay: Antiproliferative activity against human PC3 cells; type: functional
[3] = system: MDA-MB-231; assay: Antiproliferative activity against human MDA-MB-231 cells; type: functional
[4] = system: ACHN; assay: Antiproliferative activity against human ACHN cells; type: functional
[5] = system: HCT-15; assay: Antiproliferative activity against human HCT15 cells; type: functional
[6] = system: NCI-H23; assay: Antiproliferative activity against human NCI-H23 cells; type: functional
[7] = Metabolic stability in mouse liver microsomes assessed as compound remaining at 1 uM after 30 mins in the presence of NADPH; type: ADME, Microsome; details: read-out: Stability
[8] = Metabolic stability in mouse liver microsomes assessed as compound remaining at 1 uM after 30 mins in the absence of NADPH; type: ADME, Microsome; details: read-out: Stability
[9] = Chemical stability in buffer assessed as compound remaining at 1 uM after 30 mins; type: physicochemical; details: read-out: Stability
[10] = system: NUGC-3; assay: Antiproliferative activity against human NUGC3 cells; type: functional

| IC50 [1] [µM] | GI50 [2] [µM] | GI50 [3] [µM] | GI50 [4] [µM] | GI50 [5] [µM] | GI50 [6] [µM] | remaining at 0.5 h, 1 µM [7] [%] | remaining at 0.5 h, 1 µM [8] [%] | remaining at 0.5 h, 1 µM [9] [%] | Compound | GI50 [10] [µM] |
| --- | --- | --- | --- | --- | --- | --- | --- | --- | --- | --- |
| 0.12 | 4.43 | 0.99 | 1.08 | 5.37 | 4.29 |  |  |  | O=C(CCC1=CCN(Cc2ccccc2)C1=O)NO |  |
| 0.12 |  | 0.99 |  |  |  | 82.9 | 85.5 | 96.7 | O=C(CCC1=CCN(CCc2ccccc2)C1=O)NO |  |
| 0.27 | 7 | 2.56 | 4.75 | > 10 | 2.51 |  |  |  | COc1ccc(CCCN2CC=C(CCC(=O)NO)C2=O)cc1 | 5.48 |
| 0.16 | 2.59 | 1.88 | 2.48 | > 10 | 1.17 |  |  |  | COc1cccc(CCCN2CC=C(CCC(=O)NO)C2=O)c1 | 3.93 |
| 0.13 | 3.51 | 1.5 | 2.53 | > 10 | 4.49 |  |  |  | COc1ccccc1CCCN1CC=C(CCC(=O)NO)C1=O | 2.02 |
| 0.07 | 2.38 | 1.17 | 2.48 | 2.2 | 1.12 | 75.9 | 73.9 | 102 | O=C(CCC1=CCN(CCc2ccc(C(F)(F)F)cc2)C1=O)NO | 1.08 |
| 0.12 | 2.77 | 2.17 | 1.17 | 6.01 | 1.11 |  |  |  | O=C(CCC1=CCN(CCc2cccc(C(F)(F)F)c2)C1=O)NO | 0.92 |
| 0.19 | 3.17 | 1.08 | 2.38 | > 10 | 4.02 | 98.3 | 92 | 102 | COc1ccc(CCN2CC=C(CCC(=O)NO)C2=O)cc1 | 1.42 |
| 0.16 | 2.59 | 1.88 | 2.48 | > 10 | 1.17 |  |  |  | COc1cccc(CCN2CC=C(CCC(=O)NO)C2=O)c1 | 3.93 |
| 0.13 | 3.51 | 1.5 | 2.53 | > 10 | 4.49 |  |  |  | COc1ccccc1CCN1CC=C(CCC(=O)NO)C1=O | 2.02 |
| 0.26 | 4.36 | 3.07 | 4.29 | 4.54 | 6.64 |  |  |  | O=C(CCC1=CCN(Cc2ccc(C(F)(F)F)cc2)C1=O)NO | 3.23 |
| 0.12 | 0.88 | 0.22 | 0.67 | 0.54 | 0.68 |  |  |  | O=C(CCC1=CCN(Cc2cccc(C(F)(F)F)c2)C1=O)NO | 0.16 |
| 0.45 | 3.12 | 1.63 | 2.48 | 1.72 | 1.64 |  |  |  | COc1ccc(CN2CC=C(CCC(=O)NO)C2=O)cc1 | 1.11 |
| 0.38 | 3.89 | 1.77 | 4.43 | 2.82 | 1.97 |  |  |  | COc1cccc(CN2CC=C(CCC(=O)NO)C2=O)c1 | 1.75 |
| > 10 | 3.56 | 6.03 | > 10 | > 10 | 6.13 |  |  |  | COc1ccccc1CN1CC=C(CCC(=O)NO)C1=O | > 10 |

| Compound | IC50 [1] [µM] | GI50 [2] [µM] | GI50 [3] [µM] | GI50 [4] [µM] | GI50 [5] [µM] | GI50 [6] [µM] | remaining at 0.5 h, 1 µM [7] [%] | remaining at 0.5 h, 1 µM [8] [%] | remaining at 0.5 h, 1 µM [9] [%] | GI50 [10] [µM] |
| --- | --- | --- | --- | --- | --- | --- | --- | --- | --- | --- |
| O=C1CC2(CCCC2)CC(=O)N1CCCCN1CCN(c2ncccn2)CC1 [BUSPIRONE] |  |  |  |  |  |  | 106 | 0.1 | 108 |  |
